Assay results taken from patent US20100137344A1, “INDUCTION OF ANALGESIA IN NEUROPATHIC PAIN” (University Court of the University of Edinburgh, priority 2006, published 2010).

System: rats with chronic constriction injury (CCI) to sciatic nerve
Assay: Topical application to paws of CCI rats, behavioural reflex testing (thermal PWL, mechanical PWT)
Format: in vivo, rat
Settings: for % reversal of ipsilateral sensitisation, PWL / % reversal of ipsilateral sensitisation, PWT: 10-25 minutes after icilin
Experimental: Pain models were generated under halothane anaesthesia (Zeneca, Cheshire, UK). For the chronic constriction injury (CCI) model of neuropathic pain, four ligatures were tied loosely to constrict the sciatic nerve at mid-thigh level (as described previously^[39]). An inflammatory pain model was generated by injecting 100 μl of Complete Freund's Adjuvant (CFA, Sigma-Aldrich Ltd) into the ventral surface of the right hindpaw^[39]. A model of peripheral demyelination-induced pain was produced by focal application of lysolecithin to the sciatic nerve^[40]. Peak behavioural sensitisation was observed post-surgically between days 10-16 for CCI, 1-3 for CFA, and 7-14 for lysolecithin, when pharmacological and electrophysiological experiments and tissue removal were conducted.
Thermal sensitivity was assessed by measuring paw withdrawal latency (PWL, s) in response to a noxious thermal stimulus (Hargreaves' thermal stimulator, Linton Instrumentation, Diss, UK) directed to the hindpaw mid-plantar glabrous surface. Mechanical sensitivity was recorded as the paw withdrawal threshold (PWT, mN/mm^2) to calibrated von Frey filaments (Stoelting, Ill., US), as previously described^[39]. Sensitivity to noxious cold was assessed by placing animals in a waterbath with an aluminium floor containing 1 cm deep 4° C. water and counting the time the paw was held suspended over a 20 s period.
Icilin was applied at concentrations of 2.5-500 μM (in water with 0.2% DMF), by placing CCI or naïve rats unrestrained for 5 min in a 1 cm deep waterbath (sufficient to cover paws), which was thermostatically controlled to a temperature of 30° C., or by very lightly anaesthetising rats and immersing hindpaws in small tubes containing 5 ml icilin (500 μM-5 mM, with a vehicle of 45% dimethylformamide in 0.2% aqueous Tween 80) for 5 min, followed by sensory testing for 60-80 mins. The effects of (−)-menthol and its stereoisomers isomenthol (1S,2R,5R-menthol,) and (+)-menthol (1S,2R,5S(+)-menthol) (4-16 mM in 80% ethanol) were also assessed. Relevant vehicles were always assessed in similar experiments. As a contrast, the effect of cinnamaldehyde (1.5 mM in water) and the effect of cinnamaldehyde with additional icilin (80 μM in water with 0.2% DMF) were assessed in naïve animals. The effects of icilin (80 μM) were further assessed in CCI animals that had undergone antisense and mis-sense treatment for knockdown of TRPM8 or immediately following intrathecal injection of either LY 341495 or UBP 1112. […] The effects of brief paw immersion at different temperatures (10-22° C. for 5 min) on CCI rats were assessed by mechanical testing. The effects of intrathecal LY 341495 or UBP 1112 on the reversal of ipsilateral sensitisation in CCI following a 16° C. cool challenge for 5 min were measured. Reflex testing commenced 5 minutes following challenge, unless animals had been anaesthetised, in which case 15 minutes was allowed for recovery. Six replicate animals were tested in all pharmacological experiments.
Antisense and mis-sense oligonucleotides were 22-mers with phosphorothioate bonds at the last two positions at 5′ and 3′ ends (MWG Biotech, Ebersberg, Germany). Antisense extended from base −10 to base +12 relative to the start of the open reading frame for the rat TRPM8 gene: 5′ C*T*CGAAGGACATCTTGCCGT*G*G 3′, where * represents phosphorothioate linkages. Mis-sense was designed with 4 inversions of C/G or A/T as appropriate at residues 3, 11, 14 and 22, preserving overall G/C content. BLAST searches of both oligonucleotides indicated no significant complementarity to any known gene sequence. 14-day or 7-day osmotic minipumps (for CCI experiments or naïve electrophysiology experiments respectively—Alzet Minipump, models 2002, 2001; Charles River, UK) containing oligonucleotides (1 μg/μl in sterile saline) were connected to canulae inserted under the dura of the spinal cord to level L5/6 and produced a predicted infusion rate of 0.5 μl/h. […]

[1] = icilin 80 μM topical, antisense-treated CCI animals
[2] = icilin 80 μM topical, mis-sense-treated CCI animals
[3] = icilin 1000 μM applied to paw, CCI Con, 15 mins
[4] = icilin 1000 μM applied to paw, CCI Con, 50 mins
[5] = icilin 1000 μM applied to paw, CCI Ipsi, 15 mins
[6] = icilin 1000 μM applied to paw, CCI Ipsi, 50 mins
[7] = icilin 2500 μM applied to paw, CCI Con, 15 mins
[8] = icilin 2500 μM applied to paw, CCI Con, 50 mins
[9] = icilin 2500 μM applied to paw, CCI Ipsi, 15 mins
[10] = icilin 2500 μM applied to paw, CCI Ipsi, 50 mins
[11] = icilin 5000 μM applied to paw, CCI Con, 15 mins
[12] = icilin 5000 μM applied to paw, CCI Con, 50 mins
[13] = icilin 5000 μM applied to paw, CCI Ipsi, 15 mins
[14] = icilin 5000 μM applied to paw, CCI Ipsi, 50 mins
[15] = icilin topical, antisense osmotic pumps depleted, 18 days following surgery

CC(C)[C@@H]1CC[C@@H](C)C[C@H]1O [(−)-menthol, 1R,2S,5R-(−)-menthol]
reversal of sensitised responses (topical, (−)-menthol 4 mM, isomenthol and (+)-menthol 8 mM and 16 mM): Specific reversal of sensitised responses

O=C1NC(c2cccc([N+](=O)[O-])c2)=CCN1c1ccccc1O [icilin, 1-(2′-hydroxyphenyl)-4-(3″-nitrophenyl)-1,2,3,6-tetrahydropyrimidin-2-one]
reversal of CCI-induced behavioural reflex sensitisation to thermal and mechanical stimuli (icilin 80 μM topical, 5 min, bath at 30° C.): striking reversal
% reversal of ipsilateral sensitisation, PWL [1]: 7.7±7.4%
% reversal of ipsilateral sensitisation, PWT [1]: 9.4±8.2%
% reversal of ipsilateral sensitisation, PWL [2]: 82.8±6.9%
% reversal of ipsilateral sensitisation, PWT [2]: 58.7±8.2%
analgesia on daily repeated application (Hargreaves' test) (icilin 200 μM topical over four successive days): consistently causes analgesia
Mechanical PWT [3]: 4530.1 ± 300.5 mN/mm^2
Thermal PWL [3]: 16.1 ± 0.5 s
Mechanical PWT [4]: 4530.1 ± 300.5 mN/mm^2
Thermal PWL [4]: 15.2 ± 0.4 s
Mechanical PWT [5]: 702.8 ± 185.3 mN/mm^2
Thermal PWL [5]: 16.4 ± 0.8 s
Mechanical PWT [6]: 702.8 ± 185.3 mN/mm^2
Thermal PWL [6]: 8.6 ± 0.2 s
Mechanical PWT [7]: 4454.9 ± 245.9 mN/mm^2
Thermal PWL [7]: 16.8 ± 0.9 s
Mechanical PWT [8]: 4454.9 ± 245.9 mN/mm^2
Thermal PWL [8]: 15.3 ± 0.7 s
Mechanical PWT [9]: 651.9 ± 193.0 mN/mm^2
Thermal PWL [9]: 16.4 ± 0.9 s
Mechanical PWT [10]: 651.9 ± 193.0 mN/mm^2
Thermal PWL [10]: 8.4 ± 0.6 s
Mechanical PWT [11]: 2040.2 ± 115.2 mN/mm^2
Thermal PWL [11]: 16.1 ± 0.9 s
Mechanical PWT [12]: 4830.6 ± 0.0 mN/mm^2
Thermal PWL [12]: 13.4 ± 0.7 s
Mechanical PWT [13]: 412.2 ± 24.3 mN/mm^2
Thermal PWL [13]: 16.7 ± 1.0 s
Mechanical PWT [14]: 736.0 ± 26.3 mN/mm^2
Thermal PWL [14]: 7.2 ± 0.6 s
% reversal of sensitisation, PWL [15]: 83.7±10.1%
% reversal of sensitisation, PWT [15]: 54.0±7.2%
